Measured values reported in US10370343B2, “[6,6] Fused bicyclic HDAC8 inhibitors” (FORMA Therapeutics, Inc., priority 2015, dated 2019).

Key:
[1] = molecular target: T1, Recombinant N-terminal GST tag full-length human HDAC8 (Homo sapiens, UniProt Q9BY41); experiment: HDAC8 probe binding assay, time resolved fluorescence (TRF) format; details: compounds grouped by IC50 range (Table 2)
T1 construct: Recombinant N-terminal GST tag full-length human HDAC8; purchased SignalChem H90-30G-1000; host or cells: baculovirus in Sf9 insect cells
T1 sequence (Q9BY41 1-377): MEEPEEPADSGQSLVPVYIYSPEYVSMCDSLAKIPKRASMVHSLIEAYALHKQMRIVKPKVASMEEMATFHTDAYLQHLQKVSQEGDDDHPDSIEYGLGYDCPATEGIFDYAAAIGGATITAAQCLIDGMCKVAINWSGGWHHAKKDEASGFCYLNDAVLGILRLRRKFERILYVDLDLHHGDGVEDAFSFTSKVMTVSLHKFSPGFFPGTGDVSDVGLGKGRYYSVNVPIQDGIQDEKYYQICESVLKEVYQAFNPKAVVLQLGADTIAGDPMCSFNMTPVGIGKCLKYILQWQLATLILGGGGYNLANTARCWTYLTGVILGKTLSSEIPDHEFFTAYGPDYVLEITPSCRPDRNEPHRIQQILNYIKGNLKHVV
How it was run: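 Probe-binding TRF assay using full-length N-GST human HDAC8 expressed in baculovirus-infected Sf9 cells, incubated 16 h at room temperature and read at 340 nm excitation, 485/535 nm emission. Percent inhibition was normalised to no-enzyme and DMSO controls. IC50 was obtained by 4-parameter logistic fit.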

[2] = molecular target: T2, Full length human recombinant HDAC8 protein (Homo sapiens, UniProt Q9BY41); experiment: In vitro histone deacetylase assay: enzymatic HDAC8 electrophoretic mobility shift assay; format: biochemical; details: electrophoretic mobility shift assay; enzyme 1 nM; 2 μM fluorescently labeled peptide substrate RHKK(Ac)-NH2; 25° C.; 12 concentrations; read-out: HDAC8 IC50
T2 construct: Full length human recombinant HDAC8 protein was expressed in baculoviral system; made in house
T2 sequence (Q9BY41 1-377): T1 sequence (Q9BY41 1-377)

SMILES | IC50 [1] | IC50 [2]
COc1ccc(CN2C(=O)C(C(C)C)Oc3ccc(C(=O)NO)cc32)cc1 (centres unmarked) [Compound I-100, N-hydroxy-2-isopropyl-4-(4-methoxybenzyl)-3-oxo-3,4-dihydro-2H-benzo[b][1,4]oxazine-6-carboxamide] | ≤ 25 nM | < 25 nM
COc1ccc(CN2C(=O)C(Cc3ccccc3)Oc3ccc(C(=O)NO)cc32)cc1 (centres unmarked) [Compound I-102, 2-benzyl-N-hydroxy-4-(4-methoxybenzyl)-3-oxo-3,4-dihydro-2H-benzo[b][1,4]oxazine-6-carboxamide] | ≤ 25 nM | 25 to 100 nM
O=C(NO)c1ccc2c(c1)N(CCc1ccccc1)C(=O)CO2 [Compound I-58, N-hydroxy-3-oxo-4-phenethyl-3,4-dihydro-2H-benzo[b][1,4]oxazine-6-carboxamide] | 25 to 100 nM | 25 to 100 nM
O=C(NO)c1ccc2c(c1)N(Cc1ccc(SC(F)(F)F)cc1)C(=O)CO2 [Compound I-264, N-hydroxy-3-oxo-4-(4-((trifluoromethyl)thio)benzyl)-3,4-dihydro-2H-benzo[b][1,4]oxazine-6-carboxamide] | ≤ 25 nM | < 25 nM
O=C(NO)c1ccc2c(c1)N(Cc1ccn(-c3ccccc3)n1)C(=O)CO2 [Compound I-222, N-hydroxy-3-oxo-4-((1-phenyl-1H-pyrazol-3-yl)methyl)-3,4-dihydro-2H-benzo[b][1,4]oxazine-6-carboxamide] | ≤ 25 nM | < 25 nM
Cc1ccc(CN2C(=O)COc3ccc(C(=O)NO)cc32)cc1 [Compound I-38, N-hydroxy-4-(4-methylbenzyl)-3-oxo-3,4-dihydro-2H-benzo[b][1,4]oxazine-6-carboxamide] | ≤ 25 nM | < 25 nM
O=C(NO)c1ccc2c(c1)N(CC1CCCCC1)C(=O)CO2 [Compound I-149, 4-(cyclohexylmethyl)-N-hydroxy-3-oxo-3,4-dihydro-2H-benzo[b][1,4]oxazine-6-carboxamide] | 25 to 100 nM | 25 to 100 nM
O=C(NO)c1ccc2c(c1)N(Cc1ccc(Cl)c(Cl)c1)C(=O)CO2 [Compound I-258, 4-(3,4-dichlorobenzyl)-N-hydroxy-3-oxo-3,4-dihydro-2H-benzo[b][1,4]oxazine-6-carboxamide] | ≤ 25 nM | < 25 nM
O=C(NO)c1ccc2c(c1)N(Cc1nc3ccccc3o1)C(=O)CO2 [Compound I-288, 4-(benzo[d]oxazol-2-ylmethyl)-N-hydroxy-3-oxo-3,4-dihydro-2H-benzo[b][1,4]oxazine-6-carboxamide] | ≤ 25 nM | < 25 nM
COc1cccc(N2C(=O)COc3ccc(C(=O)NO)cc32)c1 [Compound I-358, N-hydroxy-4-(3-methoxyphenyl)-3-oxo-3,4-dihydro-2H-1,4-benzoxazine-6-carboxamide] | 25 to 100 nM | 25 to 100 nM
Cn1c(CN2C(=O)COc3ccc(C(=O)NO)cc32)nc2ccc(Cl)cc21 [Compound I-278, 4-((6-chloro-1-methyl-1H-benzo[d]imidazol-2-yl)methyl)-N-hydroxy-3-oxo-3,4-dihydro-2H-benzo[b][1,4]oxazine-6-carboxamide] | 25 to 100 nM | 25 to 100 nM
O=C(NO)c1ccc2c(c1)N(Cc1csc(-c3ccccc3)n1)C(=O)CO2 [Compound I-271, N-hydroxy-3-oxo-4-((2-phenylthiazol-4-yl)methyl)-3,4-dihydro-2H-benzo[b][1,4]oxazine-6-carboxamide] | 25 to 100 nM | 25 to 100 nM
O=C(NO)c1ccc2c(c1)N(Cc1cc(F)cc(C(F)(F)F)c1)C(=O)CO2 [Compound I-276, 4-(3-fluoro-5-(trifluoromethyl)benzyl)-N-hydroxy-3-oxo-3,4-dihydro-2H-benzo[b][1,4]oxazine-6-carboxamide] | 25 to 100 nM | 25 to 100 nM
O=C(NO)c1ccc2c(c1)N(Cc1cc(Cl)ccc1Cl)C(=O)CO2 [Compound I-252, 4-(2,5-dichlorobenzyl)-N-hydroxy-3-oxo-3,4-dihydro-2H-benzo[b][1,4]oxazine-6-carboxamide] | ≤ 25 nM | < 25 nM
O=C(NO)c1ccc2c(c1)N(Cc1cccc(SC(F)(F)F)c1)C(=O)CO2 [Compound I-263, N-hydroxy-3-oxo-4-(3-((trifluoromethyl)thio)benzyl)-3,4-dihydro-2H-benzo[b][1,4]oxazine-6-carboxamide] | ≤ 25 nM | < 25 nM
O=C(NO)c1ccc2c(c1)N(Cc1c(Cl)cccc1Cl)C(=O)CO2 [Compound I-253, 4-(2,6-dichlorobenzyl)-N-hydroxy-3-oxo-3,4-dihydro-2H-benzo[b][1,4]oxazine-6-carboxamide] | 25 to 100 nM | 25 to 100 nM
O=C(NO)c1ccc2c(c1)N(Cc1ccc(-n3cccn3)cc1)C(=O)CO2 [Compound I-224, 4-(4-(1H-pyrazol-1-yl)benzyl)-N-hydroxy-3-oxo-3,4-dihydro-2H-benzo[b][1,4]oxazine-6-carboxamide] | ≤ 25 nM | < 25 nM
COc1ccc(CN2C(=O)COc3ccc(C(=O)NO)cc32)c(F)c1F [Compound I-247, 4-(2,3-difluoro-4-methoxybenzyl)-N-hydroxy-3-oxo-3,4-dihydro-2H-benzo[b][1,4]oxazine-6-carboxamide] | ≤ 25 nM | < 25 nM
COc1ccc2oc(CN3C(=O)COc4ccc(C(=O)NO)cc43)nc2c1 [Compound I-285, N-hydroxy-4-((5-methoxybenzo[d]oxazol-2-yl)methyl)-3-oxo-3,4-dihydro-2H-benzo[b][1,4]oxazine-6-carboxamide] | ≤ 25 nM | < 25 nM
O=C(NO)c1ccc2c(c1)N(Cc1ccc(F)cc1C(F)(F)F)C(=O)CO2 [Compound I-277, 4-(4-fluoro-2-(trifluoromethyl)benzyl)-N-hydroxy-3-oxo-3,4-dihydro-2H-benzo[b][1,4]oxazine-6-carboxamide] | 25 to 100 nM | 100 to 1000 nM
O=C(NO)c1ccc2c(c1)N(Cc1ccc(-c3ncco3)cc1)C(=O)CO2 [Compound I-221, N-hydroxy-4-(4-(oxazol-2-yl)benzyl)-3-oxo-3,4-dihydro-2H-benzo[b][1,4]oxazine-6-carboxamide] | ≤ 25 nM | < 25 nM
CC1COc2ccc(C(=O)NO)cc2N1Cc1ccccc1 (centres unmarked) [Compound I-154, 4-benzyl-N-hydroxy-3-methyl-3,4-dihydro-2H-benzo[b][1,4]oxazine-6-carboxamide] | 25 to 100 nM | 25 to 100 nM
COc1cccc(CN2C(=O)COc3ccc(C(=O)NO)cc32)c1 [Compound I-60, N-hydroxy-4-(3-methoxybenzyl)-3-oxo-3,4-dihydro-2H-benzo[b][1,4]oxazine-6-carboxamide] | 25 to 100 nM | 25 to 100 nM
COc1cc(F)c(CN2C(=O)COc3ccc(C(=O)NO)cc32)c(F)c1 [Compound I-248, 4-(2,6-difluoro-4-methoxybenzyl)-N-hydroxy-3-oxo-3,4-dihydro-2H-benzo[b][1,4]oxazine-6-carboxamide] | ≤ 25 nM | < 25 nM
O=C(NO)c1ccc2c(c1)N(Cc1cn(-c3ccccc3)nn1)C(=O)CO2 [Compound I-77, N-hydroxy-3-oxo-4-[(1-phenyl-1H-1,2,3-triazol-4-yl)methyl]-3,4-dihydro-2H-1,4-benzoxazine-6-carboxamide] | ≤ 25 nM | < 25 nM
